“And” between values parts separate entries of the source, which are not always exact repeats. Equal entries are not always repeated.
How the values were obtained:
[1] = cited from earlier work
[2] = biological target: sigma-1 receptor (Homo sapiens, UniProt Q99720); conditions: Fontanilla 2009; Ray 2010; cited from earlier work
[3] = biological target: 5-HT1B (Homo sapiens, UniProt P28222); conditions: Halberstadt & Geyer 2011; cited from earlier work
[4] = biological target: 5-HT1D (Homo sapiens, UniProt P28221); conditions: Halberstadt & Geyer 2011; cited from earlier work
5-HT1D, sequence (P28221 whole entry, species assumed): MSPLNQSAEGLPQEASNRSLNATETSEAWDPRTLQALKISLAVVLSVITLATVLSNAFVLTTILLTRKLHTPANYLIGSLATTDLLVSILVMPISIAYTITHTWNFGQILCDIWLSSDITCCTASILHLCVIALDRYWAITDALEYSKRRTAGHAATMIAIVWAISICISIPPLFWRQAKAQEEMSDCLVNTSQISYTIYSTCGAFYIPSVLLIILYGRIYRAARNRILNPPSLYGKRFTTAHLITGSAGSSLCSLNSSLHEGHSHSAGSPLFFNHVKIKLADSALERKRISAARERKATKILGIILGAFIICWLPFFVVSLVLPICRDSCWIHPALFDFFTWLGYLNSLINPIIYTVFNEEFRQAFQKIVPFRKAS

[5] = comparable to psilocin; Jones 2024; cited from earlier work
[6] = biological target: Tropomyosin receptor kinase B (TrkB) (Homo sapiens, UniProt Q16620); conditions: Moliner 2023; cited from earlier work
Tropomyosin receptor kinase B (TrkB), sequence (Q16620 32-822, species assumed): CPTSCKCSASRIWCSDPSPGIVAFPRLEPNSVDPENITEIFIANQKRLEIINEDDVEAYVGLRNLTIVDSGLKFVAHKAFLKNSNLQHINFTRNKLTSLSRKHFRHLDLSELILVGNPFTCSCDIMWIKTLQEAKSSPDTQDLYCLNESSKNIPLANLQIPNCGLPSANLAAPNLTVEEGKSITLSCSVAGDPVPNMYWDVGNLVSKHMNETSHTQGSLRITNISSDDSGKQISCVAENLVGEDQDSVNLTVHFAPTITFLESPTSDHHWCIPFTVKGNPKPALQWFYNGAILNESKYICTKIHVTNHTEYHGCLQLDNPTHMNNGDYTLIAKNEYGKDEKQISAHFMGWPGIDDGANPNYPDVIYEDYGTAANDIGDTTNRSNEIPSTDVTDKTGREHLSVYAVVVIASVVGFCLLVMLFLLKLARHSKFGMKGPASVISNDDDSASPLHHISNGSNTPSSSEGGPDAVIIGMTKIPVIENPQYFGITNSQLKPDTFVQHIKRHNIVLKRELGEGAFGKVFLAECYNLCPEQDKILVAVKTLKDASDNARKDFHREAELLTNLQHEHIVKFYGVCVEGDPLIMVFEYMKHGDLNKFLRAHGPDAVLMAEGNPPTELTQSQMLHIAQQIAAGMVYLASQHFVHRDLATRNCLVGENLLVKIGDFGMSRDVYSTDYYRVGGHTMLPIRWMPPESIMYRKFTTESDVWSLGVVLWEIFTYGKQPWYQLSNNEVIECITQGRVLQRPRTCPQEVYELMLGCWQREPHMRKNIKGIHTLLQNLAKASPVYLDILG

[7] = test system: NMDA receptors; conditions: Moliner 2023; cited from earlier work
[8] = biological target: 5-HT6 (Homo sapiens, UniProt P50406); conditions: Halberstadt & Geyer 2011; cited from earlier work
5-HT6, sequence (P50406 whole entry, species assumed): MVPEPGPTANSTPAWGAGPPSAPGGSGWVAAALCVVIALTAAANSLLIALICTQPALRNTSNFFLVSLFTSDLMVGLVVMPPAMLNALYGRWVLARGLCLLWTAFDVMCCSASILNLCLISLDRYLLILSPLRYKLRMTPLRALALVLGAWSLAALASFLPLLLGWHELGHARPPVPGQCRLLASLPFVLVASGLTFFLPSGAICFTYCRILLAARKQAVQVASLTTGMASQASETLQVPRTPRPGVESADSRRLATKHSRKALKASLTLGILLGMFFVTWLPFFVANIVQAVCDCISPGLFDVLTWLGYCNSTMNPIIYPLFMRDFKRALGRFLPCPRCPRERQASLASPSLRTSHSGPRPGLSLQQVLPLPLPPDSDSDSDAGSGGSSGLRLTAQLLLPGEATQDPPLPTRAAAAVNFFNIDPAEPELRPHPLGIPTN

[9] = biological target: 5-HT7 (Homo sapiens, UniProt P34969); conditions: Halberstadt & Geyer 2011; cited from earlier work
5-HT7, sequence (P34969 whole entry, species assumed): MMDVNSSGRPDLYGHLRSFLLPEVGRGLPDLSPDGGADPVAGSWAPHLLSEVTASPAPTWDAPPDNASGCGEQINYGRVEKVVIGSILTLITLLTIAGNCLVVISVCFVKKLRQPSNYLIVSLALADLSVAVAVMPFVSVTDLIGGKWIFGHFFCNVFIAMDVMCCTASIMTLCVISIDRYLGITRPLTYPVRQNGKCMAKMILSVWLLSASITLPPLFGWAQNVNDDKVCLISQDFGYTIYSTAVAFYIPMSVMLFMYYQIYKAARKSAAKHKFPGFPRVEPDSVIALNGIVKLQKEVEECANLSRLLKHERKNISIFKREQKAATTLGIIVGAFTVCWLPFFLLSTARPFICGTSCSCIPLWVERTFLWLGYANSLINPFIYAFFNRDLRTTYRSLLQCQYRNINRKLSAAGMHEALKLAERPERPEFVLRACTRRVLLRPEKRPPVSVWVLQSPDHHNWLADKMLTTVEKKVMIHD

[10] = Mystical Experience Questionnaire (MEQ30) after inhaling DMT according to a disclosed method; assay type: in vivo, human
From the text: (§1) The study included nine participants with the following demographic characteristics:
(§2) For the MEQ and CEQ higher scores indicate a more mystical experience and a more challenging experience, respectively.

[11] = biological target: 5-HT2A (Homo sapiens, UniProt P28223); conditions: Halberstadt & Geyer 2011; cited from earlier work
5-HT2A, sequence (P28223 whole entry): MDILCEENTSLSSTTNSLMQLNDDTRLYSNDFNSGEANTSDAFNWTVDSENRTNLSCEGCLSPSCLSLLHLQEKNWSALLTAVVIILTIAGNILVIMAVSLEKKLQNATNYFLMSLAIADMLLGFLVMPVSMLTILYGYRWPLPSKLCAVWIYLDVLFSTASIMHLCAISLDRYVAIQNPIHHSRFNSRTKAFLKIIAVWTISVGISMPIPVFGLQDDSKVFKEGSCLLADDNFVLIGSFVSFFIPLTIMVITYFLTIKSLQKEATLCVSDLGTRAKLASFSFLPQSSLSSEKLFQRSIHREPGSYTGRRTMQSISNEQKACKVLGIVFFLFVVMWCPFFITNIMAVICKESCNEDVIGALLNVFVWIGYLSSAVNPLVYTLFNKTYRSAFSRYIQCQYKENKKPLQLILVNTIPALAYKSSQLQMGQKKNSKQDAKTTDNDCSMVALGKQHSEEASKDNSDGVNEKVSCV

[12] = biological target: 5-HT1E (Homo sapiens, UniProt P28566); conditions: Halberstadt & Geyer 2011; cited from earlier work
5-HT1E, sequence (P28566 whole entry, species assumed): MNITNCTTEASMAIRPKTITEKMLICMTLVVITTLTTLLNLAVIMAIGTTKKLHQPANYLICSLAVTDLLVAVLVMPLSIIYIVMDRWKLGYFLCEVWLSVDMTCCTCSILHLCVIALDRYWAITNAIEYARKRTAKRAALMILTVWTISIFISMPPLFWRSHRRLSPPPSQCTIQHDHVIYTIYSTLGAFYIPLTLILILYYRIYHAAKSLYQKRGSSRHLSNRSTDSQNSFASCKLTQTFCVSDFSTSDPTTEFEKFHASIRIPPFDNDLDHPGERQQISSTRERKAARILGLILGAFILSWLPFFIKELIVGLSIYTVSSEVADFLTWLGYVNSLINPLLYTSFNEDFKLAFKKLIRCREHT

[13] = cited from earlier work; remark: listed apart in the source
[14] = biological target: 5-HT5A (Homo sapiens, UniProt P47898); conditions: Halberstadt & Geyer 2011; cited from earlier work
5-HT5A, sequence (P47898 whole entry, species assumed): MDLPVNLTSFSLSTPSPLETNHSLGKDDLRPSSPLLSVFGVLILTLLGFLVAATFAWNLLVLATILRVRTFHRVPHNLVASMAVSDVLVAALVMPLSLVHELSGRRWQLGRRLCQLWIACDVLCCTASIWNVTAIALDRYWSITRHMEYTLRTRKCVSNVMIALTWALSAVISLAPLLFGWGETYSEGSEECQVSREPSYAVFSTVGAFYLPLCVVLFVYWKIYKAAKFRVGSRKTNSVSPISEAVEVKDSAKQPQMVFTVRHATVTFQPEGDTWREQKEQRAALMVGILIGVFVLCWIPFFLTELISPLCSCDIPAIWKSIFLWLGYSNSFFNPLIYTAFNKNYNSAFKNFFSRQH

[15] = Challenging Experience Questionnaire (CEQ) after inhaling DMT according to a disclosed method; assay type: in vivo, human
From the text: as §1, §2

[16] = MEQ30 item score, c1-c9 = participants 1-9, after inhaled DMT per disclosed method
[17] = mean item score per participant, r7-r15 = participants 1-9
[18] = mean over the nine participants
[19] = total per participant, r7-r15 = participants 1-9
[20] = per participant, r8-r16 = participants 1-9

5-HT1B, sequence (P28222 whole entry, species assumed): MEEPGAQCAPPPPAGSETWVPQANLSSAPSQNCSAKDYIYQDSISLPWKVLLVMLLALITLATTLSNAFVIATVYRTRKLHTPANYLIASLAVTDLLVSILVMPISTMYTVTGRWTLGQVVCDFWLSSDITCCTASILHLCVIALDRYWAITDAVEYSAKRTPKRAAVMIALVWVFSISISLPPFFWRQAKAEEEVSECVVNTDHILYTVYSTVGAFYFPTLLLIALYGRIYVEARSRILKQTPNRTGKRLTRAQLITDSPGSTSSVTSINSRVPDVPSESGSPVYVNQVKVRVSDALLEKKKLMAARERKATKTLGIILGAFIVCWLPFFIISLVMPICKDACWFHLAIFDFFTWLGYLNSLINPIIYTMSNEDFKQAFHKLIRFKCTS
sigma-1 receptor, sequence (Q99720 whole entry, species assumed): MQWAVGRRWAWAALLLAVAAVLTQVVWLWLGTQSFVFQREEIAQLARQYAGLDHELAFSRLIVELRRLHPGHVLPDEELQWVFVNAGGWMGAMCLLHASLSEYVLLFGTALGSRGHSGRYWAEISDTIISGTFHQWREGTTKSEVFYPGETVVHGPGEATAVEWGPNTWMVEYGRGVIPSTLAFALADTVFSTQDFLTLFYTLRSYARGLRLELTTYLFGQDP

O=C1Nc2ccc(Cl)cc2C(c2ccccc2Cl)=NC1O (racemic) [Lorazepam, ±7-chloro-5-(2-chlorophenyl)-1,3-dihydro-3-hydroxy-2H-1,4-benzodiazepin-2-one]
time of peak plasma concentrations (Tmax) ([1]; after oral administration): about 2 hours | half-life in human plasma ([1]; human plasma): about 12 hours

CN(C)CCc1c[nH]c2cccc(O)c12 [Psilocin, 4-hydroxy-N,N-dimethyltryptamine]
binding to the sigma-1 receptor [2]: no affinity | Ki [3]: 220 nM | Ki [4]: 36.4 nM

CC(=O)Oc1cccc2[nH]cc(CCN(C)C)c12 [Psilacetin, 4-acetoxy-N,N-dimethyltryptamine]
duration of subjective effects [5]: 4 to 8 h

CNC1(c2ccccc2Cl)CCCCC1=O (stereo not shown) [Ketamine]
binding to TrkB [6]: does directly bind to TrkB

N[C@@]1(c2ccccc2Cl)CCC[C@@H](O)C1=O [2R,6R-hydroxynorketamine]
affinity to NMDA receptors [7]: low affinity | binding to TrkB [6]: binds to TrkB

CN(C)CCc1c[nH]c2ccccc12 [DMT, N,N-dimethyltryptamine]
Ki [8]: 464 nM | Ki [9]: 206 nM | 2.1 Experience of amazement. [10, 16]: 3 and 5 and 4 | 2.4 Experience of ecstasy. [10, 16]: 3 and 5 and 4 | 2.5 Sense of awe or awesomeness. [10, 16]: 3 and 5 and 4 | 2.6 Feelings of joy. [10, 16]: 3 and 4 and 5 | 4.2 Feeling that you could not do justice to your experience by describing it in words. [10, 16]: 4 and 3 and 5 | 4.3 Feeling that it would be difficult to communicate your own experience to others who have not had similar experiences. [10, 16]: 3 and 4 and 5 | Ineffability, mean participant score (MEQ30 dimension) [10, 17]: 5.00 (4×) and 4.00 (3×) and 3.00 (2×) | Mysticism, mean participant score (MEQ30 dimension) [10, 17]: 2.53 and 3.33 and 5.00 and 3.87 and 4.00 (2×) and 4.73 and 1.33 and 3.60 | Positive Mood, mean participant score (MEQ30 dimension) [10, 17]: 4.33 (2×) and 3.50 (2×) and 4.83 and 4.50 and 2.67 (2×) and 5.00 | Transcendence, mean participant score (MEQ30 dimension) [10, 17]: 2.83 and 5.00 (2×) and 3.83 and 4.00 and 1.50 and 2.67 and 3.50 | Ineffability, Mean (MEQ30 dimension) [10, 18]: 4.22 | Mysticism, Mean (MEQ30 dimension) [10, 18]: 3.60 | Positive Mood, Mean (MEQ30 dimension) [10, 18]: 3.93 | Transcendence, Mean (MEQ30 dimension) [10, 18]: 3.35 | participants with a score >= 60% of the maximum score on the Ineffability subscale ([10]; nine participants): 100% | participants with a score >= 60% of the maximum score on the Mystical and Positive Mood subscales ([10]; nine participants): 78% | participants with a score >= 60% of the maximum score on the Transcendence of Time and Space subscale ([10]; nine participants): 55% | participants with a score >= 75% of the maximum score on the Ineffability subscale ([10]; nine participants): 78% | participants with a score >= 75% of the maximum score on the Transcendence of Time and Space subscale ([10]; nine participants): 44% | participants with a score >= 75% of the maximum scores on the Mystical and Positive Mood subscales ([10]; nine participants): 55% | participants with a score of greater than or equal to 60% on at least one MEQ30 subscale ([10]; nine participants): all participants | Ineffability, total score (MEQ30 subscale) [10, 19]: 15 (4×) and 12 (3×) and 9 (2×) | Mysticism, total score (MEQ30 subscale) [10, 19]: 38 and 50 and 75 and 58 and 60 (2×) and 71 and 20 and 54 | Positive Mood, total score (MEQ30 subscale) [10, 19]: 26 (2×) and 21 (2×) and 29 and 27 and 16 (2×) and 30 | Transcendence, total score (MEQ30 subscale) [10, 19]: 17 and 11 and 30 (2×) and 23 and 24 and 9 and 16 and 21 | Ki [11]: 127 nM | Ki [12]: 517 nM | binding to the sigma-1 receptor [2]: binds to the sigma-1 receptor | binding to TrkB [6]: do not bind TrkB directly | half life from the blood ([13]; blood): less than 16 minutes | half life from the brain ([13]; brain): less than six | Ki [3]: 129 nM | Ki [14]: 2140 nM | mean participant score, of the maximum score ([15]; Fear, Physical Distress, Insanity, Isolation, Death, and Paranoia subscales): less than 6% | mean participant score on each of the CEQ subscales, of the maximum possible score ([15]; each CEQ subscale): ≤ 10% | Death, Mean (CEQ dimension) [15, 18]: 0.44 | Fear, Mean (CEQ dimension) [15, 18]: 1.889 | Grief, Mean (CEQ dimension) [15, 18]: 3.11 | Insanity, Mean (CEQ dimension) [15, 18]: 0.89 | Isolation, Mean (CEQ dimension) [15, 18]: 0.78 | Paranoia, Mean (CEQ dimension) [15, 18]: 0.44 | Physical Distress, Mean (CEQ dimension) [15, 18]: 0.89 | Death (CEQ dimension score) [15, 20]: 1 (2×) and 2 and 0 (6×) | Fear (CEQ dimension score) [15, 20]: 0 (5×) and 5 (3×) and 2 | Grief (CEQ dimension score) [15, 20]: 1 and 6 (2×) and 0 (4×) and 12 and 3 | Insanity (CEQ dimension score) [15, 20]: 0 (5×) and 3 and 2 (2×) and 1 | Isolation (CEQ dimension score) [15, 20]: 0 (7×) and 3 and 4 | Paranoia (CEQ dimension score) [15, 20]: 0 (7×) and 2 (2×) | Physical Distress (CEQ dimension score) [15, 20]: 1 (3×) and 5 and 0 (5×) | Ki [4]: 39 nM
